ChEMBL document CHEMBL1124585, “Iodoaryl analogues of dioctanoylglycerol and 1-oleoyl-2-acetylglycerol as probes for protein kinase C” (J Med Chem, 1989)

What follows are molecules tested against Protein kinase C (PKC) (Rattus norvegicus) (UniProt P05696+P68403+P09216+P63319+P09215+Q64617+Q9WTQ0+P09217) (assay: Activation of protein kinase C).
Assay type: protein assay

Dose, 1 µM:
CCCCCCCC(=O)OCC(CO)OC(=O)CCc1cccc(I)c1 (stereo not drawn), CC(=O)OCC(CO)OC(=O)CCCCCCCCCCCCCCc1cccc(I)c1 (stereo not drawn), CC(=O)OC(CO)COC(=O)CCCCCCCCCCCCCCc1cccc(I)c1 (stereo not drawn)
